According to paper doi:10.1101/2023.03.24.534094v2 (biorxiv, 2023):
Like-named read-outs stand apart in the source and are kept apart here. Values belong to the molecule of their own block, whether it stands above or below them.

Key:
Experiment in all cases: biochemical
DRAK2 = molecular target: T1, DRAK2 (Homo sapiens, UniProt O94768)
T1 sequence (O94768 1-372): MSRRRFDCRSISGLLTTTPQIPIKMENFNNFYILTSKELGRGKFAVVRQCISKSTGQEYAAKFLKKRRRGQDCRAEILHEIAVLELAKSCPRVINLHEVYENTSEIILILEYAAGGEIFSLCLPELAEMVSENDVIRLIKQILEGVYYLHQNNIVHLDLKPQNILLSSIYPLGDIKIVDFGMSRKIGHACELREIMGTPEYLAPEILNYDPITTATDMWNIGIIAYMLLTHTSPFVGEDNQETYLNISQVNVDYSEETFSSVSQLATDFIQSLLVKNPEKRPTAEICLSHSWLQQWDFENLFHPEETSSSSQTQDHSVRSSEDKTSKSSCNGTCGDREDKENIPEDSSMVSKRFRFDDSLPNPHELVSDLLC

AurA = molecular target: T2, AurA (Homo sapiens, UniProt O14965)
T2 sequence (O14965 1-403): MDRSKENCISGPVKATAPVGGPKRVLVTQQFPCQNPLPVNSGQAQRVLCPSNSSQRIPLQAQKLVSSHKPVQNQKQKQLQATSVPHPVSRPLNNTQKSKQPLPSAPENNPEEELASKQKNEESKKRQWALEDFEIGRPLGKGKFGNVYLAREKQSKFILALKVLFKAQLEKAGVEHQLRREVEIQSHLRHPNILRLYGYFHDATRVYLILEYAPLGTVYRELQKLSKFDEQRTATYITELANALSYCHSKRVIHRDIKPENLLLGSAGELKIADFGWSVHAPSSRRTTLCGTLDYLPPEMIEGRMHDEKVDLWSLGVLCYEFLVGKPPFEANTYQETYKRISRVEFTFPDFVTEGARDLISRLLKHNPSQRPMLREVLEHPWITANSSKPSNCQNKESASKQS

EphB3 = molecular target: T3, EphB3 (Homo sapiens, UniProt P54753)
T3 sequence (P54753 1-998): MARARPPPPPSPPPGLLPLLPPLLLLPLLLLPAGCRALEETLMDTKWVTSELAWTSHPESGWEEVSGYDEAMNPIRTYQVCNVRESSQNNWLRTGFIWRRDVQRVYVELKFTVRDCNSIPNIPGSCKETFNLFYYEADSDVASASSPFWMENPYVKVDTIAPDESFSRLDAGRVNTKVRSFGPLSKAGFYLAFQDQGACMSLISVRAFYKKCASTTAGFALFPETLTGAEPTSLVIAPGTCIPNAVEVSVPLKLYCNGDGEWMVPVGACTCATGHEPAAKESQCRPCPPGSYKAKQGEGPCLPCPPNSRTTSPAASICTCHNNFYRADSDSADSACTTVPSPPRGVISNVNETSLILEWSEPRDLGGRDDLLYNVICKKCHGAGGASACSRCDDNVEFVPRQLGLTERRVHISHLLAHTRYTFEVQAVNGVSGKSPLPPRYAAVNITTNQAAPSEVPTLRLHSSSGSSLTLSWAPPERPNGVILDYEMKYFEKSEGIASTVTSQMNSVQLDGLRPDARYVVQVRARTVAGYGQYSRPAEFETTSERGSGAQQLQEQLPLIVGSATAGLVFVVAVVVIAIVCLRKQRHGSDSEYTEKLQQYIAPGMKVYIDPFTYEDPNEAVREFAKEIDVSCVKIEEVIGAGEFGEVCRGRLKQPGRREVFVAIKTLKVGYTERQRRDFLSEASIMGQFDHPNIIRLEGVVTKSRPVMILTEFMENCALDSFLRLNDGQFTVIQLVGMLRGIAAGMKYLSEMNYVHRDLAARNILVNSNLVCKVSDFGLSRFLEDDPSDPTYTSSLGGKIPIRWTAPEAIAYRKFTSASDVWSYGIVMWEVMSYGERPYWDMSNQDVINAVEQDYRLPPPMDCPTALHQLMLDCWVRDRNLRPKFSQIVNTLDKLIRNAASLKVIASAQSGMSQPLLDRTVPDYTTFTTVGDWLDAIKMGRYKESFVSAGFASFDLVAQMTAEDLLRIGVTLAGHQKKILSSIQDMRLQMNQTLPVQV

PLK4 = molecular target: T4, PLK4 (Homo sapiens, UniProt O00444)
T4 sequence (O00444 1-970): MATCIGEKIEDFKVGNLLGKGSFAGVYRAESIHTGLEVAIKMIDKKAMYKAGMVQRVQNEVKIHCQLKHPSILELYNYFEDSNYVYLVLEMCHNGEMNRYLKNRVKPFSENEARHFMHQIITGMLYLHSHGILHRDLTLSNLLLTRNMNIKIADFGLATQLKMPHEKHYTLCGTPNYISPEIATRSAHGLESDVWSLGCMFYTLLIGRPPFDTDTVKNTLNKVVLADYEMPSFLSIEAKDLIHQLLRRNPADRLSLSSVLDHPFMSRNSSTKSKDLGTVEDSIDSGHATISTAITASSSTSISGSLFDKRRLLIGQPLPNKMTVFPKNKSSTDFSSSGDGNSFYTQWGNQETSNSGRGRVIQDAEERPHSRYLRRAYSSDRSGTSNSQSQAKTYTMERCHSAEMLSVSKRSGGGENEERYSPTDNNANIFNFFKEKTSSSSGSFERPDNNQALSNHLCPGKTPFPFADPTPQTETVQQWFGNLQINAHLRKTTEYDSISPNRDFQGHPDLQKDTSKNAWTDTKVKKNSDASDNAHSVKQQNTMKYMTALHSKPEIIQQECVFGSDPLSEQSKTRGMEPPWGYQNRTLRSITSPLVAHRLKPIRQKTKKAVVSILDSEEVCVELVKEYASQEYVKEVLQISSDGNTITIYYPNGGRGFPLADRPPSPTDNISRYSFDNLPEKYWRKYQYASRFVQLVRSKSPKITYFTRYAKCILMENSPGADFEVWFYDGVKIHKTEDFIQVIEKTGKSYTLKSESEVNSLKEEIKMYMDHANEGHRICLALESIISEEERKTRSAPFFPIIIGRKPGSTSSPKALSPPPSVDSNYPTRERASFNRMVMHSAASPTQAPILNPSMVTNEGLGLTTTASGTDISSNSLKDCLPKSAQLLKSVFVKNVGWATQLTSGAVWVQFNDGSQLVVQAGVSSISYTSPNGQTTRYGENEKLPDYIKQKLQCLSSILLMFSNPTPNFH

p38a = p38a (Homo sapiens, UniProt Q16539)
p38a, sequence (Q16539 whole entry): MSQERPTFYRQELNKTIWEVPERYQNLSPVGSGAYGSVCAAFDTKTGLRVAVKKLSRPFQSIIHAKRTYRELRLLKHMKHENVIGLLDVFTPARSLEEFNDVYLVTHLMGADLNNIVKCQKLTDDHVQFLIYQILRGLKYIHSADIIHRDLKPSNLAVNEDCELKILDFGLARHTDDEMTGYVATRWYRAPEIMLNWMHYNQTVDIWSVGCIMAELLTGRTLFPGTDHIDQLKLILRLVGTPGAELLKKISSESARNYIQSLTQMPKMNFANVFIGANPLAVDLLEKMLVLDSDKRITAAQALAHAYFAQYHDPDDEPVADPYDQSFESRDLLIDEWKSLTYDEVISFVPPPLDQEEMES

SMILES: CNc1ncc2cc(-c3cc(Br)ccc3Br)c(=O)n(CCCCN)c2n1 [compound 11, 8-(4-Aminobutyl)-6-(2,5-dibromophenyl)-2-(methylamino)pyrido[2,3-d]pyrimidin-7(8H)-one]
ΔTm at 10 µM (DRAK2; read-out: dTm 11): 0 °C | ΔTm at 10 µM (AurA; read-out: dTm 11): 1.9 °C | ΔTm at 10 µM (EphB3; read-out: dTm 11): 3 °C | ΔTm at 10 µM (PLK4; read-out: dTm 11): 0.6 °C | ΔTm at 10 µM (p38a; read-out: dTm 11): 6.4 °C

SMILES: CNc1ncc2cc(-c3cc(C(F)(F)F)ccc3Cl)c(=O)n(CCCCN)c2n1 [compound 9, 8-(4-Aminobutyl)-6-(2-chloro-5-(trifluoromethyl)phenyl)-2-(methylamino)pyrido[2,3-d]pyrimidin-7(8H)-one]
ΔTm at 10 µM (DRAK2; read-out: dTm 9): 0 °C | ΔTm at 10 µM (AurA; read-out: dTm 9): 1.3 °C | ΔTm at 10 µM (EphB3; read-out: dTm 9): 2.3 °C | ΔTm at 10 µM (PLK4; read-out: dTm 9): 0.3 °C | ΔTm at 10 µM (p38a; read-out: dTm 9): 4.2 °C

The next lines start with the values.

ΔTm at 10 µM (DRAK2; read-out: dTm 8): 0.1 °C | ΔTm at 10 µM (AurA; read-out: dTm 8): 1.9 °C | ΔTm at 10 µM (EphB3; read-out: dTm 8): 4.1 °C | ΔTm at 10 µM (PLK4; read-out: dTm 8): 0.5 °C | ΔTm at 10 µM (p38a; read-out: dTm 8): 6 °C
SMILES: CNc1ncc2cc(-c3cc(Cl)ccc3Cl)c(=O)n(CCCCN)c2n1 [compound 8, 8-(4-Aminobutyl)-6-(2,5-dichlorophenyl)-2-(methylamino)pyrido[2,3-d]pyrimidin-7(8H)-one]

ΔTm at 10 µM (DRAK2; read-out: dTm 10): 0.1 °C | ΔTm at 10 µM (AurA; read-out: dTm 10): 2 °C | ΔTm at 10 µM (EphB3; read-out: dTm 10): 4.6 °C | ΔTm at 10 µM (PLK4; read-out: dTm 10): 0.4 °C | ΔTm at 10 µM (p38a; read-out: dTm 10): 6.1 °C
SMILES: CNc1ncc2cc(-c3cc(Cl)ccc3Br)c(=O)n(CCCCN)c2n1 [compound 10, 8-(4-Aminobutyl)-6-(2-bromo-5-chlorophenyl)-2-(methylamino)pyrido[2,3-d]pyrimidin-7(8H)-one]

ΔTm at 10 µM (DRAK2; read-out: dTm 12): 5.7 °C | ΔTm at 10 µM (AurA; read-out: dTm 12): -2.4 °C | ΔTm at 10 µM (EphB3; read-out: dTm 12): 2.5 °C | ΔTm at 10 µM (PLK4; read-out: dTm 12): 6.3 °C | ΔTm at 10 µM (p38a; read-out: dTm 12): 0.4 °C
SMILES: CNc1ncc2cc(-c3cc(F)c(-c4cccc(C)n4)cc3F)c(=O)n(CCCCN)c2n1 [compound 12, 8-(4-Aminobutyl)-6-(2,5-difluoro-4-(6-methylpyridin-2-yl)phenyl)-2-(methylamino)pyrido[2,3-d]pyrimidin-7(8H)-one]
